Patent publication US10165776B2, “Substituted pyrazolylpyrazole derivative and use of same as herbicide” (KYOYU AGRI CO., LTD., priority 2015, dated 2019)

Columns and labels:
Type in all cases: in vivo
[1] = test system: Digitaria ciliaris; assay: Weed foliar treatment test (Test 4, 4.0 to 5.0 leaf stage); settings: 10 g a.i./10 a; foliar spray at 4.0 to 5.0 leaf stage of Digitaria ciliaris (plant height 10 cm to 15 cm); 20 days at 25° C.
Experimental: (§1) Field soil was filled into a 1/4500 are pot followed by seeding with Digitaria ciliaris and Galinsoga parviflora, covering with soil and cultivating in a glass greenhouse at an average atmospheric temperature of 25° C. Wettable powders of Target Compound (I) shown in Table 1 prepared in compliance with the preparation examples were diluted with water to the prescribed amount of chemical and uniformly sprayed onto the weeds using 100 liters of sprayed water per 10 are when Digitaria ciliaris had grown to the 4.0 to 5.0 leaf stage (plant height: 10 cm to 15 cm). After treating for 20 days in a glass greenhouse at an average atmospheric temperature of 25° C., the herbicidal efficacy thereof was investigated. Evaluation of herbicidal efficacy was carried out in the same manner as the above-mentioned Test Example 1.

[2] = test system: Galinsoga parviflora; assay: as above; settings: 10 g a.i./10 a; foliar spray at 4.0 to 5.0 leaf stage of Digitaria ciliaris (plant height 10 cm to 15 cm); 20 days at 25° C.
Experimental: as §1

[3] = test system: Echinochloa crus-galli; assay: Paddy herbicidal activity test; settings: irrigated pot, treated at 3.5 leaf stage of Echinochloa crus-galli, 30 days at 30° C.
Experimental: (§2) Rice paddy soil was filled into a 1/10000 are pot followed by the addition of suitable amounts of water and chemical fertilizer, kneading, seeding with Echinochloa crus-galli, Monochoria vaginalis and Scirpus juncoides and maintaining in an irrigated state at a water depth of 3 cm. Wettable powders of Target Compound (I) shown in Table 1 prepared in compliance with the preparation examples were diluted with a suitable amount of water, rice plants in the 2.0 leaf stage were transplanted during 3.5 leaf stage of Echinochloa crus-galli, and treated by dropping in chemical in the prescribed amount per 10 are using a pipette. After treating for 30 days in a glass greenhouse at an average atmospheric temperature of 30° C., the herbicidal efficacy thereof was investigated. Evaluation of herbicidal efficacy was carried out by comparing growth inhibition rate (%) with an untreated group, while evaluation of phytotoxicity was carried out by comparing growth inhibition rate (%) with the state of a complete eradication group, and were evaluated at 11 levels indicated below.

[4] = test system: Monochoria vaginalis; assay: Paddy herbicidal activity test; settings: irrigated pot, treated at 3.5 leaf stage of Echinochloa crus-galli, 30 days at 30° C.
Experimental: as §2

[5] = test system: Scirpus juncoides; assay: Paddy herbicidal activity test; settings: irrigated pot, treated at 3.5 leaf stage of Echinochloa crus-galli, 30 days at 30° C.
Experimental: as §2

[6] = test system: Oryza sativa; assay: Paddy herbicidal activity test, phytotoxicity to transplanted rice; settings: rice transplanted at 2.0 leaf stage, 30 days at 30° C.
Experimental: as §2

[7] = test system: Amaranthus retroflexus; assay: Farming soil treatment test; settings: soil surface spray prior to weed growth, 30 days at 30° C.
Experimental: (§3) Field soil was filled into a 1/6000 are pot followed by seeding with Digitaria ciliaris, Chenopodium album and Amaranthus retroflexus and covering with soil. Wettable powders of compounds of formula (I) shown in Table 1 prepared in compliance with the preparation examples were diluted with water to the prescribed amount of chemical and uniformly sprayed onto each soil surface layer using 100 liters of sprayed water per 10 are prior to weed growth following seeding. After treating for 30 days in a glass greenhouse at an average atmospheric temperature of 30° C., the herbicidal efficacy thereof was investigated. Evaluation of herbicidal efficacy was carried out in the same manner as the above-mentioned Test Example 1.

[8] = test system: Chenopodium album; assay: Farming soil treatment test; settings: soil surface spray prior to weed growth, 30 days at 30° C.
Experimental: as §3

[9] = test system: Digitaria ciliaris; assay: Farming soil treatment test; settings: soil surface spray prior to weed growth, 30 days at 30° C.
Experimental: as §3

[10] = test system: Amaranthus retroflexus; assay: Weed foliar treatment test (Test 3, 1.0 to 2.0 leaf stage); settings: foliar spray at 1.0 to 2.0 leaf stage of Digitaria ciliaris, 3 weeks at 25° C.
Experimental: (§4) Soil was filled into a 1/6000 are pot followed by seeding with Digitaria ciliaris, Chenopodium album and Amaranthus retroflexus, covering with soil, and cultivating in a glass greenhouse at an average atmospheric temperature of 25° C. Wettable powders of Target Compound (I) shown in Table 1 prepared in compliance with the preparation examples were diluted with water to the prescribed amount of chemical and uniformly sprayed onto the weeds using 150 liters of sprayed water per 10 are when Digitaria ciliaris had grown to the 1.0 to 2.0 leaf stage. After treating for 3 weeks in a glass greenhouse at an average atmospheric temperature of 25° C., the herbicidal efficacy thereof was investigated. Evaluation of herbicidal efficacy was carried out in the same manner as the above-mentioned Test Example 1.

[11] = test system: Chenopodium album; assay: as above; settings: foliar spray at 1.0 to 2.0 leaf stage of Digitaria ciliaris, 3 weeks at 25° C.
Experimental: as §4

[12] = test system: Digitaria ciliaris; assay: as above; settings: foliar spray at 1.0 to 2.0 leaf stage of Digitaria ciliaris, 3 weeks at 25° C.
Experimental: as §4

| Compound | herbicidal efficacy, Digitaria ciliaris [1] | herbicidal efficacy, Galinsoga parviflora [2] | herbicidal efficacy, Echinochloa crus-galli ([3]; 1 g a.i./10 a) | herbicidal efficacy, Echinochloa crus-galli ([3]; 5 g a.i./10 a) | herbicidal efficacy, Monochoria vaginalis ([4]; 1 g a.i./10 a) | herbicidal efficacy, Monochoria vaginalis ([4]; 5 g a.i./10 a) | herbicidal efficacy, Scirpus juncoides ([5]; 1 g a.i./10 a) | herbicidal efficacy, Scirpus juncoides ([5]; 5 g a.i./10 a) | phytotoxicity, Oryza sativa ([6]; 1 g a.i./10 a) | phytotoxicity, Oryza sativa ([6]; 5 g a.i./10 a) | herbicidal efficacy, Amaranthus retroflexus ([7]; 5 g a.i./10 a) | herbicidal efficacy, Amaranthus retroflexus ([7]; 10 g a.i./10 a) | herbicidal efficacy, Chenopodium album ([8]; 5 g a.i./10 a) | herbicidal efficacy, Chenopodium album ([8]; 10 g a.i./10 a) | herbicidal efficacy, Digitaria ciliaris ([9]; 5 g a.i./10 a) | herbicidal efficacy, Digitaria ciliaris ([9]; 10 g a.i./10 a) | herbicidal efficacy, Amaranthus retroflexus ([10]; 5 g a.i./10 a) | herbicidal efficacy, Amaranthus retroflexus ([10]; 10 g a.i./10 a) | herbicidal efficacy, Chenopodium album ([11]; 5 g a.i./10 a) | herbicidal efficacy, Chenopodium album ([11]; 10 g a.i./10 a) | other results |
| --- | --- | --- | --- | --- | --- | --- | --- | --- | --- | --- | --- | --- | --- | --- | --- | --- | --- | --- | --- | --- | --- |
| N#Cc1cnn(-c2nn3c(c2Cl)CCC3)c1NC(=O)Cc1ccccc1 [Compound 2] | 10 (10: 100%) | 10 (10: 100%) |  |  |  |  |  |  |  |  |  |  |  |  |  |  |  |  |  |  |  |
| N#Cc1cnn(-c2nn3c(c2Cl)CCCC3)c1NC(=O)Cc1ccccc1 [Compound 3] | 10 (10: 100%) | 10 (10: 100%) | 9 (9: 90% to less than 100%) | 10 (10: 100%) | 9 (9: 90% to less than 100%) | 10 (10: 100%) | 9 (9: 90% to less than 100%) | 10 (10: 100%) | 0 (0 (exponent): 0% to less than 10% (growth inhibition rate)) | 1 (1: 10% to less than 20%) | 9 (9: 90% to less than 100%) | 9 (9: 90% to less than 100%) | 9 (9: 90% to less than 100%) | 10 (10: 100%) | 9 (9: 90% to less than 100%) | 9 (9: 90% to less than 100%) | 9 (9: 90% to less than 100%) | 10 (10: 100%) | 10 (10: 100%) | 10 (10: 100%) | herbicidal efficacy, Digitaria ciliaris ([12]; 5 g a.i./10 a): 10 (10: 100%); herbicidal efficacy, Digitaria ciliaris ([12]; 10 g a.i./10 a): 10 (10: 100%) |
| N#Cc1cnn(-c2nn3c(c2Br)CCCC3)c1NC(=O)Cc1ccccc1 [Compound 4] | 10 (10: 100%) | 10 (10: 100%) |  |  |  |  |  |  |  |  |  |  |  |  |  |  |  |  |  |  |  |
| O=C(Cc1ccccc1)Nc1c([N+](=O)[O-])cnn1-c1nn2c(c1Cl)CCCC2 [Compound 5] | 10 (10: 100%) | 10 (10: 100%) | 10 (10: 100%) | 10 (10: 100%) | 10 (10: 100%) | 10 (10: 100%) | 9 (9: 90% to less than 100%) | 10 (10: 100%) | 1 (1: 10% to less than 20%) | 1 (1: 10% to less than 20%) | 9 (9: 90% to less than 100%) | 9 (9: 90% to less than 100%) | 9 (9: 90% to less than 100%) | 10 (10: 100%) | 9 (9: 90% to less than 100%) | 9 (9: 90% to less than 100%) | 10 (10: 100%) | 10 (10: 100%) | 10 (10: 100%) | 10 (10: 100%) | herbicidal efficacy, Digitaria ciliaris ([12]; 5 g a.i./10 a): 10 (10: 100%); herbicidal efficacy, Digitaria ciliaris ([12]; 10 g a.i./10 a): 10 (10: 100%) |
| Cc1ccccc1CC(=O)Nc1c(C#N)cnn1-c1nn2c(c1Cl)CCCC2 [Compound 6] | 10 (10: 100%) | 10 (10: 100%) | 10 (10: 100%) | 10 (10: 100%) | 10 (10: 100%) | 10 (10: 100%) | 10 (10: 100%) | 10 (10: 100%) | 1 (1: 10% to less than 20%) | 1 (1: 10% to less than 20%) | 9 (9: 90% to less than 100%) | 9 (9: 90% to less than 100%) | 9 (9: 90% to less than 100%) | 10 (10: 100%) | 9 (9: 90% to less than 100%) | 9 (9: 90% to less than 100%) | 10 (10: 100%) | 10 (10: 100%) | 10 (10: 100%) | 10 (10: 100%) | herbicidal efficacy, Digitaria ciliaris ([12]; 5 g a.i./10 a): 10 (10: 100%); herbicidal efficacy, Digitaria ciliaris ([12]; 10 g a.i./10 a): 10 (10: 100%) |
| COc1ccccc1CC(=O)Nc1c(C#N)cnn1-c1nn2c(c1Cl)CCCC2 [Compound 7] | 10 (10: 100%) | 10 (10: 100%) |  |  |  |  |  |  |  |  |  |  |  |  |  |  |  |  |  |  |  |
| N#Cc1cnn(-c2nn3c(c2Cl)CCCC3)c1NC(=O)Cc1ccccc1Cl [Compound 8] | 10 (10: 100%) | 10 (10: 100%) |  |  |  |  |  |  |  |  |  |  |  |  |  |  |  |  |  |  |  |
